Data on one compound can be found in paper doi:10.1101/2023.08.21.553510v1 (biorxiv, 2023).

Structures are written as SMILES.

By IC50 is commonly meant the point on the concentration scale where inhibition reaches its midpoint. A higher IC50 goes with weaker potency. What is called EC50 is the concentration giving half of the maximal effect. The low end stands for a more potent agent, the high end for a less potent agent.

Test [1] concerns the target T1, RyR2 (Mus musculus, UniProt E9Q401). Put plainly: [3H]ryanodine binding to microsomes. In kind it is biochemical.
Test [2] concerns the target T1, RyR2. Put plainly: ER Ca2+. In kind it is cell-based.

T1 sequence (E9Q401 whole entry): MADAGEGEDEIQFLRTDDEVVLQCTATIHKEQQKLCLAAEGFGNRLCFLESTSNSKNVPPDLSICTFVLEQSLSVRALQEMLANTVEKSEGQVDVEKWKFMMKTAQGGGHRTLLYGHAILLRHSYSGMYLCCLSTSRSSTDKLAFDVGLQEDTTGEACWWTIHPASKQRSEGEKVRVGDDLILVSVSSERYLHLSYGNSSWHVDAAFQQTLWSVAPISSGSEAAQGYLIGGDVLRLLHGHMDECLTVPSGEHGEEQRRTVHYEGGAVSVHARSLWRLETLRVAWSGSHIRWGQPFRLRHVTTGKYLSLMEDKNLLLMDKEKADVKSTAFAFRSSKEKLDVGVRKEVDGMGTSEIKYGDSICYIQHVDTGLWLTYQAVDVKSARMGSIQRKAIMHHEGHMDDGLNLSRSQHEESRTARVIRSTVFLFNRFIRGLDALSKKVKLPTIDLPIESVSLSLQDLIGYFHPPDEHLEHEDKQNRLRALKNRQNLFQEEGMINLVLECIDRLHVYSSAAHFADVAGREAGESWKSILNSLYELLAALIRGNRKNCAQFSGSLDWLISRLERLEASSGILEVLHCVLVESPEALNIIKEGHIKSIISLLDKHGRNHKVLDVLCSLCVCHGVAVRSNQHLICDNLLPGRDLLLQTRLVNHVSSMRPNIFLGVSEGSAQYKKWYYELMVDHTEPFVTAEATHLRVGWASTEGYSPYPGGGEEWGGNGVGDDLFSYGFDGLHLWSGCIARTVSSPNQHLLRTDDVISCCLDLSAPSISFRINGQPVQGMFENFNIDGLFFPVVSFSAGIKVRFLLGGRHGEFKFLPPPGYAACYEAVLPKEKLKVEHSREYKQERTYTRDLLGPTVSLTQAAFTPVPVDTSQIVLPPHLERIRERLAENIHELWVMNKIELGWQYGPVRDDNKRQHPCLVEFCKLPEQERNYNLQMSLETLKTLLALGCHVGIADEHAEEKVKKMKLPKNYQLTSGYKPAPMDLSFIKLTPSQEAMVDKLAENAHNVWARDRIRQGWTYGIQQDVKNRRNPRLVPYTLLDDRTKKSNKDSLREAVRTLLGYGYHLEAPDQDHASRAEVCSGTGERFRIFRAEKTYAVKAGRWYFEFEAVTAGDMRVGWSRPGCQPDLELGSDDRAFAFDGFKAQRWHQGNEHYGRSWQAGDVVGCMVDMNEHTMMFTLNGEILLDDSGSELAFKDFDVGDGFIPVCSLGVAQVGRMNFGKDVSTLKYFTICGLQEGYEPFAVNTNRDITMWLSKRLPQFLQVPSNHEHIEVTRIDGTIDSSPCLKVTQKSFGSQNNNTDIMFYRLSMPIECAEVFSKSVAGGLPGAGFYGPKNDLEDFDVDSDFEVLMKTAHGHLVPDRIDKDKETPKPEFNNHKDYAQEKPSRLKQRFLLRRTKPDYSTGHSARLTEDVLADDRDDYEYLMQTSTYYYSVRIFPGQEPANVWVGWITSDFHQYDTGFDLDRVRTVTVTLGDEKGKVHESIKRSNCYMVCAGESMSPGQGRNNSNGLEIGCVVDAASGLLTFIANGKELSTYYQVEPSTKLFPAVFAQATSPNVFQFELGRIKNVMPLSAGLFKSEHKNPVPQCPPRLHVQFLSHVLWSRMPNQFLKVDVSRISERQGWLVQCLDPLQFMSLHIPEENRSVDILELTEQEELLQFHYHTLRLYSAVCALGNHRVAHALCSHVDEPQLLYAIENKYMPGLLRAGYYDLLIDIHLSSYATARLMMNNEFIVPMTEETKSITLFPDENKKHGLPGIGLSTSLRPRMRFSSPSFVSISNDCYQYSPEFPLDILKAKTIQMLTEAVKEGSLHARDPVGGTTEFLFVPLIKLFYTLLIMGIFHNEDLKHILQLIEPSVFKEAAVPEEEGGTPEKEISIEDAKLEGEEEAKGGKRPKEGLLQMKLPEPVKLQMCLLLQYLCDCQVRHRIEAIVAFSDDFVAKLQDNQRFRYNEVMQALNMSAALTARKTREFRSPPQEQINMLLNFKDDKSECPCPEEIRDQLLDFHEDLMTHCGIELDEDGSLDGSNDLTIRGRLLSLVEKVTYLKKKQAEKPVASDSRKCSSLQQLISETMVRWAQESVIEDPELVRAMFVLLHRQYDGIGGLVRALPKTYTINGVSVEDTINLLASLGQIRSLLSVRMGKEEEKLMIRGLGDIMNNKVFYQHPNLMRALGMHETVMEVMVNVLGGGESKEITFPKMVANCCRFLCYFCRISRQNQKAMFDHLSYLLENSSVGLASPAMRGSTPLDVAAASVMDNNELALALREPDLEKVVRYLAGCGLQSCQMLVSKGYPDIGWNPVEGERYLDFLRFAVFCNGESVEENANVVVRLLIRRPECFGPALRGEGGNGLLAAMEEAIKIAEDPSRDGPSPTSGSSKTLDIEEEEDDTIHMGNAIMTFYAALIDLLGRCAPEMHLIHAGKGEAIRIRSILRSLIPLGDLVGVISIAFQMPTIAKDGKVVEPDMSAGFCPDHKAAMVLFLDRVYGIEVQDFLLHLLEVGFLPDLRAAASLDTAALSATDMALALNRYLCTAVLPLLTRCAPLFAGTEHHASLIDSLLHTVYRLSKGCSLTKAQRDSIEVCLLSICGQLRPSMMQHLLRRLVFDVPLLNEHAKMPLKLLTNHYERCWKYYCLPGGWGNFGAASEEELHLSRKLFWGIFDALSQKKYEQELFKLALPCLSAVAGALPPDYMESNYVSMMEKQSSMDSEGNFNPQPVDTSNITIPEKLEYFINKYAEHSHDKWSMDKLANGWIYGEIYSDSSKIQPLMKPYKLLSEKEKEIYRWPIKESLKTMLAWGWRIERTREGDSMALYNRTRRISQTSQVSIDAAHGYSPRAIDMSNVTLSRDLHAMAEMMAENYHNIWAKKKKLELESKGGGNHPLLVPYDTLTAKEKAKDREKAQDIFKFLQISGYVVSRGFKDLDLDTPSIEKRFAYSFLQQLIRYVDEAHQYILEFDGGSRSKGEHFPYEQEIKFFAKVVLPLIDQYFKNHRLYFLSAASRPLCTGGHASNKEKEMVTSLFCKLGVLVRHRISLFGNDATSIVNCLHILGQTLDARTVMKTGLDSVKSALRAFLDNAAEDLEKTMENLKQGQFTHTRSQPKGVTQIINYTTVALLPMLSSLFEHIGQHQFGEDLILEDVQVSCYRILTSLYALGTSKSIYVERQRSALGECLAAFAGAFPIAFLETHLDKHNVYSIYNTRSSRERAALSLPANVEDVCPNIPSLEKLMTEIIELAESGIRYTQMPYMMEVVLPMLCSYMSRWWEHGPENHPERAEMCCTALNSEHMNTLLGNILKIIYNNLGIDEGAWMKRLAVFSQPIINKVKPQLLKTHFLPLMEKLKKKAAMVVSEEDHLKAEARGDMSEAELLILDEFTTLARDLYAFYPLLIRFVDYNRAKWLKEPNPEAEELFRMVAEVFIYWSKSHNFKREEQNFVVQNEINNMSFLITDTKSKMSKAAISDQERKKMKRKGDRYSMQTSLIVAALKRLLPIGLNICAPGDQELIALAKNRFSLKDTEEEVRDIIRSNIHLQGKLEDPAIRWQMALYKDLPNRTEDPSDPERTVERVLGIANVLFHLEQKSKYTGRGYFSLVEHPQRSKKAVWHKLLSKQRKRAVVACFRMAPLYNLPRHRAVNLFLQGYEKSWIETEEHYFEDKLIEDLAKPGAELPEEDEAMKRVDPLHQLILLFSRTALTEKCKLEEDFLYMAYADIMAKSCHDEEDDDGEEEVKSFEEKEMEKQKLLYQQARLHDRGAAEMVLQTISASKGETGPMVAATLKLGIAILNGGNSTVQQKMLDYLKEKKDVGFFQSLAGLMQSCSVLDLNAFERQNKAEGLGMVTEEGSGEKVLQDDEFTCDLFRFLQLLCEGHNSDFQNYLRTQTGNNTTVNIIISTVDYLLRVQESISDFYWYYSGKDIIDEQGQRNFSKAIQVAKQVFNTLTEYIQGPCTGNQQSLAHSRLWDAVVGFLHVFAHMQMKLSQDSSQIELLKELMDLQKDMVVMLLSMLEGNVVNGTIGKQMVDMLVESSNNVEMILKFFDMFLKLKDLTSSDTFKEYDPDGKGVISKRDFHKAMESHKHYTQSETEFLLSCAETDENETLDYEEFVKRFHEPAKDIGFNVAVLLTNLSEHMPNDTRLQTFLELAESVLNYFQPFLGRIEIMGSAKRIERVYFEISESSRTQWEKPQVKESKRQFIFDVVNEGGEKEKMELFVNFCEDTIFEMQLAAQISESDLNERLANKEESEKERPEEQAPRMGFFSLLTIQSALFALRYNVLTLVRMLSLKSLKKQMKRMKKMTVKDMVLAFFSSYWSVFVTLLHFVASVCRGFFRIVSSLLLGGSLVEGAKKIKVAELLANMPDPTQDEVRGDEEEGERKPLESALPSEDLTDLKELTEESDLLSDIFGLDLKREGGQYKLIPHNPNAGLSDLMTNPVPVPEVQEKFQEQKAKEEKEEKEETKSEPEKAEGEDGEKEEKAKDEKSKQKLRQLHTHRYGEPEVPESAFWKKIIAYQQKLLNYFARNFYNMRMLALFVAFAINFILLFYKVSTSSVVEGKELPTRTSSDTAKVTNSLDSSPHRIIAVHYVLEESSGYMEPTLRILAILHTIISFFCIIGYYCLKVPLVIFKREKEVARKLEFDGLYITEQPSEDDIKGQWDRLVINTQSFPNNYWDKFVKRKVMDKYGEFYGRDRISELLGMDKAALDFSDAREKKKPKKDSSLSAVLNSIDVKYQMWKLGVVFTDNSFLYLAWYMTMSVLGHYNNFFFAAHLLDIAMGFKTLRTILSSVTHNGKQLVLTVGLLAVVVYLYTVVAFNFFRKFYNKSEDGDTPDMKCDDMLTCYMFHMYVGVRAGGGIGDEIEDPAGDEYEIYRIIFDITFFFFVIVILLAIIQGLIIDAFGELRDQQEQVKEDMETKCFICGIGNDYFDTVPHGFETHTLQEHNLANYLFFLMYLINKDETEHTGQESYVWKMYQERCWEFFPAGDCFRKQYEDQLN

`Cc1cc(O)cc(C)c1Cl` [#1, chloroxylenol] registered an IC50 on RyR2 [1] of 130 nM. The compound also yielded an EC50 at RyR2 [2] of 300 nM.
